# Source: the NIST ThermoML archive (doi:10.1021/je3010535)
# Values joined by “and” are separate entries in the source; they are usually repeats but may differ in a detail not shown here. Equal values may be shown once. ± gives the expanded uncertainty stated by the source.
# Test: Henry's Law constant (molality scale); of the first substance listed, at infinite dilution; xn = mol fraction of the nth substance listed
# Details: Liquid, Chromatography, x1 = 0
Structure (SMILES),Henry's Law constant (274.15 K) [kPa·kg/mol],Henry's Law constant (294.65 K),Henry's Law constant (296.15 K) [kPa·kg/mol],Henry's Law constant (310.15 K) [kPa·kg/mol],Henry's Law constant (313.15 K) [kPa·kg/mol],Henry's Law constant (326.15 K) [kPa·kg/mol],Henry's Law constant (331.15 K) [kPa·kg/mol],Henry's Law constant (273.25 K) [kPa·kg/mol],Henry's Law constant (298.15 K) [kPa·kg/mol],Henry's Law constant (311.15 K) [kPa·kg/mol],Henry's Law constant (332.15 K) [kPa·kg/mol],Henry's Law constant (320.15 K) [kPa·kg/mol],Henry's Law constant (333.15 K) [kPa·kg/mol]
"Cc1cc(C)cc(C)c1 [1,3,5-trimethylbenzene] + O",115 ± 46,304 kPa·kg/mol and 352 kPa·kg/mol,408 ± 160,719 ± 290,1330 ± 530,2360 ± 940,1830 ± 730,–,–,–,–,–,–
C#CCO [2-propyn-1-ol] + O,–,–,–,–,–,–,–,0.039 ± 0.012,0.255 ± 0.076,0.754 ± 0.23,3.71 ± 1.1,–,–
ClC(Cl)Cl [trichloromethane] + O,107 ± 32,301 kPa·kg/mol and 324 kPa·kg/mol,363 ± 110,782 ± 230,628 ± 190,1170 ± 350,1770 ± 530,–,–,–,–,–,–
S=C=S [carbon disulfide] + O,682 ± 200,–,–,–,2930 ± 880,5690 ± 1700,–,–,–,–,–,–,–
"CC(Cl)CCl (configuration not stated) [1,2-dichloropropane] + O",70.7 ± 21,217 kPa·kg/mol and 198 kPa·kg/mol,225 ± 67,418 ± 130,–,699 ± 210,1210 ± 360,–,–,–,–,–,–
Cc1cccc2ccccc12 [1-methylnaphthalene] + O,3.74 ± 1.1,23.4 kPa·kg/mol and 13.3 kPa·kg/mol,27.8 ± 8.3,74 ± 22,–,–,153 ± 46,–,–,–,–,87.9 ± 26,150 ± 45
c1ccc2ccccc2c1 [naphthalene] + O,5 ± 1.5,31.7 kPa·kg/mol and 17.8 kPa·kg/mol,34.7 ± 10,90.2 ± 27,–,–,196 ± 59,–,–,–,–,116 ± 35,278 ± 83
ClCCl [dichloromethane] + O,85.1 ± 26,222 kPa·kg/mol and 214 kPa·kg/mol,250 ± 75,–,523 ± 160,686 ± 210,–,–,–,–,–,–,–
Brc1ccccc1 [bromobenzene] + O,56.1 ± 17,138 kPa·kg/mol and 147 kPa·kg/mol,161 ± 48,273 ± 82,–,–,708 ± 210,–,–,–,–,470 ± 140,–
ClCc1ccccc1 [(chloromethyl)benzene] + O,–,–,–,–,–,–,–,7.81 ± 2.3,50.6 ± 15,139 ± 42,–,–,–
"CC(Cl)(Cl)Cl [1,1,1-trichloroethane] + O",484 ± 150,1410 kPa·kg/mol and 1210 kPa·kg/mol,1430 ± 430,–,2680 ± 800,4510 ± 1400,–,–,–,–,–,–,–
"ClCC(Br)CBr (configuration not stated) [1,2-dibromo-3-chloropropane] + O",1.28 ± 0.38,7.76 kPa·kg/mol and 9.37 kPa·kg/mol,11.8 ± 3.5,28.1 ± 8.4,–,–,101 ± 30,–,–,–,–,49.7 ± 15,133 ± 40
"CC(Cl)Cl [1,1-dichloroethane] + O",188 ± 56,–,–,–,953 ± 290,1560 ± 470,–,–,–,–,–,–,–
CCC(C)=O [butanone] + O,0.416 ± 0.12,1.72 kPa·kg/mol and 2.37 kPa·kg/mol,2.62 ± 0.79,8.13 ± 2.4,–,–,43.9 ± 13,–,–,–,–,15.3 ± 4.6,62 ± 19
"FC(F)(Cl)C(F)(Cl)Cl [1,1,2-trichloro-1,2,2-trifluoroethane] + O",1070 ± 320,–,–,–,16800 ± 5000,20100 ± 6000,–,–,–,–,–,–,–
ClCBr [bromochloromethane] + O,50.8 ± 15,121 kPa·kg/mol and 123 kPa·kg/mol,126 ± 38,259 ± 78,–,–,795 ± 240,–,–,–,–,479 ± 140,–
"Cl/C=C/Cl [(E)-1,2-dichloroethene] + O",311 ± 93,956 kPa·kg/mol and 852 kPa·kg/mol,995 ± 300,–,1820 ± 540,2900 ± 870,–,–,–,–,–,–,–
CCCc1ccccc1 [propylbenzene] + O,182,–,505,412,1900,3160,1920,–,–,–,–,–,–
ClC(Cl)Br [bromodichloromethane] + O,60.5 ± 18,165 kPa·kg/mol and 162 kPa·kg/mol,172 ± 51,347 ± 100,–,–,973 ± 290,–,–,–,–,–,–
"Cl/C=C\Cl [(Z)-1,2-dichloroethene] + O",131 ± 39,317 kPa·kg/mol and 330 kPa·kg/mol,405 ± 120,–,636 ± 190,1110 ± 330,–,–,–,–,–,–,–
COC(C)(C)C [2-methoxy-2-methylpropane] + O,5.5,–,58,59,–,–,1650,–,–,–,–,368,–
CC#N [acetonitrile] + O,0.21 ± 0.084,1.41 kPa·kg/mol and 1.55 kPa·kg/mol,1.7 ± 0.68,5.36 ± 2.1,–,–,6.17,–,–,–,–,12.6 ± 5.1,–

Structure (SMILES),Henry's Law constant (274.15 K) [kPa·kg/mol],Henry's Law constant (294.65 K),Henry's Law constant (296.15 K) [kPa·kg/mol],Henry's Law constant (310.15 K) [kPa·kg/mol],Henry's Law constant (313.15 K) [kPa·kg/mol],Henry's Law constant (326.15 K) [kPa·kg/mol],Henry's Law constant (331.15 K) [kPa·kg/mol],Henry's Law constant (273.25 K) [kPa·kg/mol],Henry's Law constant (298.15 K) [kPa·kg/mol],Henry's Law constant (311.15 K) [kPa·kg/mol],Henry's Law constant (332.15 K) [kPa·kg/mol],Henry's Law constant (320.15 K) [kPa·kg/mol],Henry's Law constant (333.15 K) [kPa·kg/mol]
ClC(Cl)C(Cl)(Cl)Cl [pentachloroethane] + O,43.4 ± 17,133 kPa·kg/mol and 141 kPa·kg/mol,163 ± 65,268 ± 110,471 ± 190,1070 ± 430,989 ± 400,–,–,–,–,505 ± 200,–
ClC=C(Cl)Cl [trichloroethene] + O,249 ± 75,711 kPa·kg/mol and 721 kPa·kg/mol,691 ± 210,2110 ± 630,1670 ± 500,2630 ± 790,4620 ± 1400,–,–,–,–,–,–
C=CCl [chloroethene] + O,1140 ± 340,–,–,–,4200 ± 1300,6500 ± 1900,–,–,–,–,–,–,–
COC(C)=O [methyl ethanoate] + O,1.06 ± 0.42,5.33 kPa·kg/mol and 7.39 kPa·kg/mol,7.53 ± 3,34.1 ± 14,–,–,83.1 ± 33,–,–,–,–,52.4 ± 21,125 ± 50
CC(=O)c1ccccc1 [acetophenone] + O,0.128 ± 0.039,0.881 kPa·kg/mol and 0.738 kPa·kg/mol,1.6 ± 0.48,2.48 ± 0.75,–,–,8.87 ± 2.7,–,–,–,–,4.6 ± 1.4,–
CCC#N [propanenitrile] + O,0.302 ± 0.091,2.3 kPa·kg/mol and 2.2 kPa·kg/mol,2.78 ± 0.83,5.36 ± 1.6,–,–,14 ± 4.2,–,–,–,–,11 ± 3.3,–
Cc1ccc(C(C)C)cc1 [1-(1-methylethyl)-4-methylbenzene] + O,157 ± 63,389 kPa·kg/mol and 469 kPa·kg/mol,502 ± 200,777 ± 310,2150 ± 860,3440 ± 1400,1830 ± 730,–,–,–,–,–,–
CC(C)O [propan-2-ol] + O,–,–,–,–,–,–,–,0.088,2.14,1.19,22.9,–,–
C=CC#N [acrylonitrile] + O,1.24 ± 0.37,5.23 kPa·kg/mol and 8.07 kPa·kg/mol,9.19 ± 2.8,25.3 ± 7.6,–,–,73.9 ± 22,–,–,–,–,40 ± 12,97.8 ± 29
C=C(C)C#N [isopropenylnitrile] + O,2.92 ± 1.2,14.7 kPa·kg/mol and 16.8 kPa·kg/mol,16.7 ± 6.7,50.9 ± 20,–,–,147 ± 59,–,–,–,–,68.5 ± 27,261 ± 100
"ClC/C=C/CCl [trans-1,4-dichloro-2-butene] + O",3.9 ± 1.6,28.2 kPa·kg/mol and 17.7 kPa·kg/mol,31.6 ± 13,96.4 ± 39,–,–,155 ± 62,–,–,–,–,175 ± 70,–
"Clc1cccc(Cl)c1Cl [1,2,3-trichlorobenzene] + O",17.8 ± 5.3,56.4 kPa·kg/mol and 54.8 kPa·kg/mol,63 ± 19,124 ± 37,–,–,324 ± 97,–,–,–,–,199 ± 60,–
CCCCOCCO [2-butoxyethan-1-ol] + O,–,–,–,–,–,–,–,–,0.269 ± 0.081,0.904 ± 0.27,4.27 ± 1.3,–,–
O=[N+]([O-])c1ccccc1 [nitrobenzene] + O,0.175 ± 0.053,1.06 kPa·kg/mol and 1.11 kPa·kg/mol,2.58 ± 0.78,4.13 ± 1.2,–,–,17.6 ± 5.3,–,–,–,–,8.57 ± 2.6,–
CC(C)=O [acetone] + O,0.231 ± 0.092,1.44 kPa·kg/mol and 1.26 kPa·kg/mol,1.13 ± 0.45,7.55 ± 3,–,–,16 ± 6.4,–,–,–,–,11.5 ± 4.6,41.1 ± 16
COCCO [2-methoxyethan-1-ol] + O,–,–,–,–,–,–,–,–,0.223 ± 0.067,0.665 ± 0.2,3.28 ± 0.98,–,–
CCCl [chloroethane] + O,522 ± 160,–,–,–,1950 ± 580,2940 ± 880,–,–,–,–,–,–,–
Cc1ccc2ccccc2c1 [2-methylnaphthalene] + O,4.91 ± 1.5,31.4 kPa·kg/mol and 16.6 kPa·kg/mol,35 ± 10,84.4 ± 25,–,–,169 ± 51,–,–,–,–,106 ± 32,166 ± 50
"CC(C)(Cl)Cl [2,2-dichloropropane] + O",423 ± 170,–,–,–,3280 ± 1300,36600 ± 15000,–,–,–,–,–,–,–
CCCCc1ccccc1 [butylbenzene] + O,174,–,458,481,2290,3470,1280,–,–,–,–,–,–
"ClCC(Cl)CCl [1,2,3-trichloropropane] + O",2.98 ± 0.89,23 kPa·kg/mol and 13.6 kPa·kg/mol,28.3 ± 8.5,78.2 ± 23,–,–,208 ± 62,–,–,–,–,113 ± 34,370 ± 110
